Measurements published in patent US20190119348A1, “PARATHYROID HORMONE RECEPTOR 1 ANTAGONIST AND INVERSE AGONIST POLYPEPTIDES AND METHODS OF THEIR USE” (The General Hospital Corporation, priority 2016, published 2019).
Where two headings read alike, the source gives them in different places. Where a SMILES comes first, the peptide text is derived from it. [ ]: non-standard residue; d: D form.

Target: T1, endogenous hPTHR1 (Homo sapiens, UniProt Q03431)
T1 construct: Saos-2, in which is endogenously expressed the hPTHR1; endogenous in cells
T1 sequence (Q03431 27-593): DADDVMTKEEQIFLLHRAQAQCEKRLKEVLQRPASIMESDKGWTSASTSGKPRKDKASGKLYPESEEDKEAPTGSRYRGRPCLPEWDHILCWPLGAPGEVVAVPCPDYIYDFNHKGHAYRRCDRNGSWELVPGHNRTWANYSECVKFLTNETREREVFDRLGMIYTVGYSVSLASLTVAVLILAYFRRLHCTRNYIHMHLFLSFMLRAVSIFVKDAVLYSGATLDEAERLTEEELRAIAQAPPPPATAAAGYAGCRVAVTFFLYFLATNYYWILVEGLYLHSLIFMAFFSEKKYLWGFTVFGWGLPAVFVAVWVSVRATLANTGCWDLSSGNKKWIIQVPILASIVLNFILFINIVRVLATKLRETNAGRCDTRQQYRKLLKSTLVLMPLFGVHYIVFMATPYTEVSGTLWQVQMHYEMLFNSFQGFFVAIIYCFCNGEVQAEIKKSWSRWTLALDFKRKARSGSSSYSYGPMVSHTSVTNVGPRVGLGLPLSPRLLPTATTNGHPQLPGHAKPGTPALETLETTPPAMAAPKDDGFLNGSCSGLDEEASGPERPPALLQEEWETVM
Experiment: Antagonism of PTH(1-34)- and PTHrP(1-36)-induced cAMP response (GloSensor) in SGS-72 cells
Format: cell-based
In short: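 SaOS2-derived SGS-72 cells, which express endogenous hPTHR1 and a stable GloSensor cAMP reporter, were loaded with 0.5 mM luciferin for 15 min at room temperature in CO2-independent medium with 0.1% BSA. Antagonist was tested against PTH(1-34) or PTHrP(1-36), with luminescence taken at the agonist-alone maximum; pIC50 came from four-parameter fits.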

CC[C@H](C)[C@H](N)C(=O)N[C@@H](CCC(N)=O)C(=O)N[C@@H](CC(C)C)C(=O)N[C@@H](CCSC)C(=O)N[C@@H](Cc1c[nH]cn1)C(=O)N[C@@H](CCC(N)=O)C(=O)N[C@@H](CCCNC(=N)N)C(=O)N[C@H](Cc1c[nH]c2ccccc12)C(=O)N[C@@H](CCCCN)C(=O)N[C@@H](Cc1c[nH]c2ccccc12)C(=O)N[C@H](C(=O)N[C@@H](CCC(N)=O)C(=O)N[C@@H](CC(=O)O)C(=O)N[C@@H](C)C(=O)N[C@@H](CCCNC(=N)N)C(=O)N[C@@H](CCCNC(=N)N)C(=O)N[C@@H](CCCNC(=N)N)C(=O)N[C@@H](C)C(=O)N[C@@H](Cc1c[nH]c2ccccc12)C(=O)N[C@@H](CC(C)C)C(=O)N[C@@H](Cc1c[nH]cn1)C(=O)N[C@@H](CCCCN)C(=O)N[C@@H](CC(C)C)C(=O)N[C@H](C(=O)N[C@@H](C)C(=O)N[C@@H](CCC(=O)O)C(=O)N[C@H](C(=O)N[C@@H](Cc1c[nH]cn1)C(=O)N[C@H](C(=O)N[C@@H](C)C(=O)N[C@@H](CCC(=O)O)C(=O)N[C@H](C(N)=O)[C@@H](C)CC)[C@@H](C)O)[C@@H](C)CC)[C@@H](C)CC)[C@@H](C)CC [compound 1949, dW12, W23-LA-PTH(5-36)] (H-IQLMHQR[dW]KWIQDARRRAWLHKLIAEIHTAEI-NH2; N-terminus assumed)
IC50 (IC50 PTH(1-34) (Table 6, nanomolar value), antagonist pre-treatment 15 minutes, PTH(1-34) 0.3 nM): 1.45 nM
IC50 (antagonist pre-treatment 10 minutes, PTHrP(1-36) 0.3 nM, seven experiments, read-out: corresponding nanomolar value vs. PTHrP(1-36) (Table 5)): 1 nM
IC50 (antagonist pre-treatment 10 minutes, PTHrP(1-36) 0.3 nM, seven experiments, read-out: pIC50 vs. PTHrP(1-36) (Table 5) (converted)): 0.794 nM
IC50 (antagonist pre-treatment 15 minutes, PTHrP(1-36) 0.3 nM, read-out: IC50 PTHrP(1-36) (Table 6, nanomolar value)): 1.21 nM
IC50 (corresponding nanomolar value vs. PTH(1-34) (Table 5), antagonist pre-treatment 10 minutes, PTH(1-34) 0.3 nM, seven experiments): 1 nM
IC50 (pIC50 vs. PTH(1-34) (Table 5), antagonist pre-treatment 10 minutes, PTH(1-34) 0.3 nM, seven experiments): 0.776 nM
